Results: publication PMC11555678, “Improved Broad Spectrum Antifungal Drug Synergies with Cryptomycin, a Cdc50-Inspired Antifungal Peptide” (ACS Infectious Diseases, 2024)
Values after ≈ are worked out from the molar mass of the structure shown. Square brackets hold non-standard residues; d marks the D form. Peptide text beside a SMILES is read from it. * marks the point of attachment. Myristoyl = CCCCCCCCCCCCCC(=O)*; Orn = NCCC[C@H](N)C(=O)O

Experiments:
C. neoformans MRL862 = conditions: cited from earlier work
Description: First, the MICs of the peptides and commonly used antifungal drugs were assessed on their own. A full accounting of MICs of intermediate SAR screen peptides is reported in Supporting Information, Table S1.

C. neoformans H99 [1] = conditions: Cn wild-type, previous study; cited from earlier work
C. neoformans H99 [2] = assay type: cell-based, Cryptococcus neoformans; conditions: 2× MIC, by 2 h, no rebound by 8 h; RPMI1640, 30 °C, 225 rpm, 2 million cfu/mL
Description: Culture tubes were prepared with aliquots of 2.0 mL of RPMI1640 (containing Q, MOPS, pH = 7, no phenol red). The tubes were sealed to prevent evaporation and were equilibrated with the incubation chamber overnight, at 30 °C. On the day of the experiment, overnight yeast cultures in YPD were washed twice with DD-H2O and resuspended in DD-H2O. The OD600 of the cell suspension was adjusted to 4.6, ≈2 × 10^6 cfu/mL, in DD-H2O. A 200 μL aliquot of adjusted cell suspension was added systematically to each tube, followed by 200 μL sampling for the 0 h time point. Immediately after sampling, the antifungal compounds were added, and the tubes were placed in the incubator at 30 °C with shaking at 225 rpm. The sampled aliquot was transferred to a 96-well plate and serially diluted six times, 10-fold each time. The resulting cell suspensions were spotted onto YPD plates in a grid pattern of 5 μL per spot. Subsequently, tubes were briefly removed from the incubator, and 100 μL aliquots were sampled at 2, 4, 6, and 8 h time points. Cells were counted on the YPD plates at either 24 or 48 h after plate spotting, depending on when the colonies were countable. Images of the YPD plates were recorded on the Bio-Rad Gel imager after 48 h of incubation at 30 °C. […] 2 C = number of colonies counted, Df = dilution factor = 10^n–1, n = column that the cells were counted, and Vf = volume factor = 1/0.005 mL.

Cn H99 = assay: Intracellular ROS detection (H2DCFDA, flow cytometry); assay type: cell-based, Cryptococcus neoformans; conditions: 30 min exposure in YPD
Description: (§1) Protocol was carried out in accordance with previously reported methodologies.[35] Yeast cells were grown ON in liquid YPD, washed once in H2O, and resuspended in fresh YPD. The OD600 was adjusted to 0.2 in YPD. Cells were incubated for 3 h at 30 °C, 225 rpm, and then stained with 10 μM H2DCFDA for 2 h at 30 °C, 225 rpm, in the dark. Stained cells were washed twice with DD-H2O and resuspended in the minimal amount of YPD or calcium-enriched YPD needed to inoculate each technical replicate with cells. Each condition was prepared with four technical replicates. In the dark, the stained cells were titrated with KKOO-NH2 from 0.25 to 1× MIC and incubated for 30 min at 30 °C, 225 rpm, in 1 mL of YPD in 12 mL of vented culture tubes. After treatment, cells were transferred to 1.5 mL Eppendorf and centrifuged for 5 min at 2000 rpm. The cells were washed once with 0.5 mL of PBS and resuspended in 0.2 mL of PBS, and stored on ice for live-cell flow analysis, BD FACS Via (Franklyn Lakes, NJ). 100,000 events were recorded, and singlets were gated from SSC-A × FSC-A plot. Mean fluorescence signal intensity from the probe was plotted as a function of peptide concentration. Cells that remained after FACS were pooled based on their condition and imaged under the fluorescence microscope, Zeiss Axioscope 5.

Cn cdc50Δ = assay: as above; assay type: cell-based, Cryptococcus neoformans; conditions: 30 min exposure in YPD
Description: as §1

[3] = system: C. neoformans in macrophage J774 cells; assay: Macrophage killing assay; assay type: cell-based, Cryptococcus neoformans / murine macrophage; conditions: yeast pretreated at sub-MIC for 30 min; 2 or 4 h coincubation
Description: Macrophage killing assay was carried out in accordance with previously reported protocols.[23],[69] After the cell line was activated from −80 °C stock and passaged several times, the cells were washed and resuspended in fresh DMEM + FBS at 1 × 10^5 cell/mL. Each well in a 3 column by 6 row grid in a 48-well plate was charged with 0.5 mL of cell suspension, approximately 50,000 cell/well. Macrophages were grown ON at 37 °C in a tissue culture incubator and were further activated with LPS. Yeast cells were grown ON using standard conditions. Fungal cells were washed twice with H2O, resuspended in PBS, and adjusted to 2.4 × 10^6 cfu/mL in 5 mL RPMI. […] Treated cells were transferred to a 1.5 mL Eppendorf tube, pelleted, and resuspended in 100 μL of 20% mouse compliment in PBS for opsonization. Prior to inoculating the wells with yeast cells for coincubation, the opsonized cells were diluted by an additional 20% with PBS. Each well was inoculated with 10 μL of cell suspension. Cocultures were prepared using three technical replicates. The 48-well plates were inoculated about 30 min apart to allow time to process each plate during the experiment. After 2 h of coincubation, each well was washed three times with 200 μL of warm DMEM + penstrep. […]

Q: For `OC(Cn1cncn1)(Cn1cncn1)c1ccc(F)cc1F` [FLC, fluconazole], which “MIC, reported value” (C. neoformans MRL862) is on record?
A: 128 mg/L (≈ 418 µM)

Q: For `CC[C@H](C)C[C@H](C)CCCCCCCCC(=O)N[C@H]1C[C@@H](O)[C@@H](NCCN)NC(=O)[C@@H]2[C@@H](O)CCN2C(=O)[C@H]([C@H](O)CCN)NC(=O)[C@H]([C@H](O)[C@@H](O)c2ccc(O)cc2)NC(=O)[C@@H]2C[C@@H](O)CN2C(=O)[C@H]([C@@H](C)O)NC1=O` [CAS, caspofungin], which MIC (C. neoformans H99 [1]) is on record?
A: 16 mg/L (≈ 14.6 µM)

Q: With `CCCCCCCCCCCCCC(=O)N[C@@H](Cc1c[nH]c2ccccc12)C(=O)NCC(=O)NCC(=O)N[C@H](C(=O)N[C@@H](CCCN)C(=O)N[C@@H](CCCN)C(=O)N[C@@H](CC(N)=O)C(=O)N[C@@H](Cc1ccc(O)cc1)C(=O)N[C@@H](C)C(N)=O)[C@@H](C)CC` [KKOO-NH2] (Myristoyl-WGGI[Orn][Orn]NYA-NH2) as the molecule, how does the Cryptococcus cells killed (C. neoformans H99 [2]) read?
A: > 99.9%

Q: And the “lowest peptide concentration with elevated ROS production” value (Cn H99)?
A: 4 µg/mL

Q: What about the “lowest peptide concentration with elevated ROS production” value (Cn cdc50Δ) of the same molecule?
A: 1 µg/mL

Q: And the “fungal proliferation inside macrophages vs untreated control” value [3]?
A: No statistically significant difference
